The values that follow come from patent publication US9029343B2, “Modulators of histone methyltransferase, and methods of use thereof” (Epizyme, Inc., priority 2010, dated 2015).

pIC50: −log10 of the molar value.

One experiment deals with H3K4, H3K9 and H3K27 methylation in THP-1 cells. As to the kind of experiment: Methylation analysis: other histone methylation sites in THP-1 cells. Format: cell-based, Human. Conditions: antibodies to H3K4me3, H3K9me3, H3K27me2, H3K27me3. How it is done: (§1) Cells were seeded at 5×10^5 cells/mL in a 12 well plate at a final volume of 2 mLs. Cells were dosed with compounds to the appropriate concentration from a 50 mM DMSO stock solution. Compound and media were refreshed every two days over the course of seven day incubation by counting cells using trypan blue exclusion (Vicell), pelleting at 200 g for 5 minutes and resuspending in fresh media containing compound at a final cell concentration of 5×10^5 cells/mL. Following compound incubation, histones were extracted from 1×10^6 cells using a commercial histone extraction kit (Active Motif). Purified histones were quantitated using the BCA protein assay (Pierce) with a BSA standard curve. 400 ng of isolated histones were fractionated by SDS-PAGE on a 4-20% gel and transferred to nitrocellulose membranes. Membranes were incubated with various primary and secondary antibodies and imaged on the Licor imaging system (Odyssey). The H3K79-Me2 rabbit polyclonal was purchased from Abcam. Other rabbit polyclonal antibodies including H3K4-Me3, H3K9-Me3, H3K27-Me2, and H3K27-Me3 were purchased from Cell Signaling Technologies (CST). A mouse monoclonal total H3 antibody was used as a loading control (CST). Fluorescently labeled secondary antibodies were purchased from Odyssey.
On to `CN(CCCNC(=O)Nc1ccc(C(C)(C)C)cc1)C[C@H]1O[C@@H](n2cnc3c(N)ncnc32)[C@H](O)[C@@H]1O` [Compound 118, 1-(3-((((2R,3S,4R,5R)-5-(6-amino-9H-purin-9-yl)-3,4-dihydroxytetrahydrofuran-2-yl)methyl)(methyl)amino)propyl)-3-(4-(tert-butyl)phenyl)urea], for which the “effect on sites targeted by other histone methyltransferases (H3K4, H3K9 and H3K27)” value is on record as “did not affect”.

In the next experiment the target is EZH2 (Homo sapiens, UniProt Q15910). As to the kind of experiment: EZH2 IC50 (FIGS. 7A and 7B). Format: biochemical.
Sequence of EZH2 (Q15910 whole entry, species assumed): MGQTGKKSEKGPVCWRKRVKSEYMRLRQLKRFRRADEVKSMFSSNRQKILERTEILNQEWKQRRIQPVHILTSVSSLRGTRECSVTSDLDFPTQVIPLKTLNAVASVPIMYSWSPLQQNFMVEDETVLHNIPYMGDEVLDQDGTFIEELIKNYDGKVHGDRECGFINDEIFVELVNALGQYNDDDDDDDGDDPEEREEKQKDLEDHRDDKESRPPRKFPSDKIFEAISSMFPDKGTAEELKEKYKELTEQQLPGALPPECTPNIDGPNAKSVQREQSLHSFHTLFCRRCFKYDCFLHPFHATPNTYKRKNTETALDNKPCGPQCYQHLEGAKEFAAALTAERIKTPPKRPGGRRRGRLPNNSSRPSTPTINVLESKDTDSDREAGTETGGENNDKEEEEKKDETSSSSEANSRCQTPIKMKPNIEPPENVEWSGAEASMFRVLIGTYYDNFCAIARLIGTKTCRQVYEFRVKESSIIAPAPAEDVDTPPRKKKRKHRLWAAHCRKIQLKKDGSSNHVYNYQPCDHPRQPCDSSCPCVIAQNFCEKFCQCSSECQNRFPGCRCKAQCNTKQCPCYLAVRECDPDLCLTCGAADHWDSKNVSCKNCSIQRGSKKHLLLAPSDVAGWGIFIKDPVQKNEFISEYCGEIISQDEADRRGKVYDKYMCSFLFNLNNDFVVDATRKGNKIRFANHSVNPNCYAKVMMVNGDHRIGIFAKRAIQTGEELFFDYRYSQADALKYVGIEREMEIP
Sequence of EZH2 (O75530 whole entry partner, species assumed): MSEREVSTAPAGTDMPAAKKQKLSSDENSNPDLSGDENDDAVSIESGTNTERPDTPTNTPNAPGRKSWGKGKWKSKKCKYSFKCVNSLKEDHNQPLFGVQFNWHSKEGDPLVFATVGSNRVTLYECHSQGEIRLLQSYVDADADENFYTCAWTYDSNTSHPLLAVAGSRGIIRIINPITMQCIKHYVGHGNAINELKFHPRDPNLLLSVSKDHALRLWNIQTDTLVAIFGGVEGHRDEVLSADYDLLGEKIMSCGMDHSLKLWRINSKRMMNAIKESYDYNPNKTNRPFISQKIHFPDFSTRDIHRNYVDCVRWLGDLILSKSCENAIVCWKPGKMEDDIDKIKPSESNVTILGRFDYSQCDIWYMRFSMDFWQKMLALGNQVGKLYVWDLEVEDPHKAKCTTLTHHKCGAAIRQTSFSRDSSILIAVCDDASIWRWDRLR
Sequence of EZH2 (Q15022 whole entry partner, species assumed): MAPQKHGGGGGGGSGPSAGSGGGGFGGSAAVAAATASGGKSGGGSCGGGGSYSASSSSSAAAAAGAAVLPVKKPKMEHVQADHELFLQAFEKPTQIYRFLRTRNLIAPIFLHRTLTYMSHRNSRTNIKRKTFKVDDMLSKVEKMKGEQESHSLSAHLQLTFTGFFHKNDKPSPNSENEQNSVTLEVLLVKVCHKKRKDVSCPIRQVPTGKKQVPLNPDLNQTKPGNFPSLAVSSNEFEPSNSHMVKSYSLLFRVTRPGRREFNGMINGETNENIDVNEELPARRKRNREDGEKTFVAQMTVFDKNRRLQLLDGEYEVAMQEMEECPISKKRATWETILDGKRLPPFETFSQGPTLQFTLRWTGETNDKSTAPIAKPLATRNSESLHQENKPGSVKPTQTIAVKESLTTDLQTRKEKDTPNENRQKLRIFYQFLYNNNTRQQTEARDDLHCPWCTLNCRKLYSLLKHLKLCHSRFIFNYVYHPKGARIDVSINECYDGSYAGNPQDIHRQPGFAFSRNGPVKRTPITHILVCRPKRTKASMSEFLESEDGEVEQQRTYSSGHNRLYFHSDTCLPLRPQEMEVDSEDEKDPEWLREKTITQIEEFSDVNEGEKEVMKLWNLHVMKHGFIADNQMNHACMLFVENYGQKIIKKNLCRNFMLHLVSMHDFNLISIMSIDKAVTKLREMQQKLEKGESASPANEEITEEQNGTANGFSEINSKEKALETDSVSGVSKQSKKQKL
Conditions: not given
`CN(CCCNC(=O)Nc1ccc(C2CCCCC2)cc1)C[C@H]1O[C@@H](n2cnc3c(N)ncnc32)[C@H](O)[C@@H]1O` [Compound 185]: the pIC50 is under 4.30.

Take `CC(CNC(=O)Nc1ccc(C(C)(C)C)cc1)CN(C)C[C@H]1O[C@@H](n2cnc3c(N)ncnc32)[C@H](O)[C@@H]1O` (some centres unmarked) [Compound 223]: the pIC50 is under 4.30.

Regarding `CN(CCCOC(=O)Nc1ccc(C(C)(C)C)cc1)C[C@H]1O[C@@H](n2cnc3c(N)ncnc32)[C@H](O)[C@@H]1O` [Compound 152], the pIC50 was under 4.30.

`CN(CCCNC(=O)Nc1ccc(-c2cscn2)cc1)C[C@H]1O[C@@H](n2cnc3c(N)ncnc32)[C@H](O)[C@@H]1O` [Compound 190] had a pIC50 of under 4.30.

Take `CN(CCCNC(=O)Nc1ccc(Oc2ccccc2N)cc1)C[C@H]1O[C@@H](n2cnc3c(N)ncnc32)[C@H](O)[C@@H]1O` [Compound 183]: the pIC50 is under 4.30.

In the case of `CN(CCCCCNC(=O)Nc1ccc(C(C)(C)C)cc1)C[C@H]1O[C@@H](n2cnc3c(N)ncnc32)[C@H](O)[C@@H]1O` [Compound 213], the pIC50 was under 4.30.

In the case of `CC(C)CN(CCCNC(=O)Nc1ccc(C(C)(C)C)cc1)C[C@H]1O[C@@H](n2cnc3c(N)ncnc32)[C@H](O)[C@@H]1O` [Compound 209], the pIC50 was under 4.30.

For the compound `CN(C[C@H]1O[C@@H](n2cnc3c(N)ncnc32)[C@H](O)[C@@H]1O)CC(C)(C)CNC(=O)Nc1ccc(C(C)(C)C)cc1` [Compound 163], the pIC50 was under 4.30.

As for `CC(=O)N(CCCNC(=O)Nc1ccc(C(C)(C)C)cc1)C[C@H]1O[C@@H](n2cnc3c(N)ncnc32)[C@H](O)[C@@H]1O` [Compound 195], the negative-log IC50 (pIC50) is under 4.30.

The compound `Cc1cccc(-c2ccc(NC(=O)NCCCN(C)C[C@H]3O[C@@H](n4cnc5c(N)ncnc54)[C@H](O)[C@@H]3O)cc2)c1` [Compound 199] gave a pIC50 of under 4.30.

With `CN(C[C@H]1O[C@@H](n2cnc3c(N)ncnc32)[C@H](O)[C@@H]1O)CC1(CNC(=O)Nc2ccc(C(C)(C)C)cc2)CC1` [Compound 167], the pIC50 is under 4.30.

`CN(CCCCC(=O)Nc1ccc(C(C)(C)C)cc1)C[C@H]1O[C@@H](n2cnc3c(N)ncnc32)[C@H](O)[C@@H]1O` [Compound 179] gave a pIC50 of under 4.30.

With `CN(CCCN(C)C(=O)Nc1ccc(C(C)(C)C)cc1)C[C@H]1O[C@@H](n2cnc3c(N)ncnc32)[C@H](O)[C@@H]1O` [Compound 173], the pIC50 was under 4.30.

In the case of `CCN(CCCNC(=O)Nc1ccc(C(C)(C)C)cc1)C[C@H]1O[C@@H](n2cnc3c(N)ncnc32)[C@H](O)[C@@H]1O` [Compound 169], the pIC50 is under 4.30.

The compound `CN(CCCCNC(=O)Nc1ccc(C(C)(C)C)cc1)C[C@H]1O[C@@H](n2cnc3c(N)ncnc32)[C@H](O)[C@@H]1O` [Compound 159] had a negative logarithm of the IC50 (pIC50) of under 4.30.

`CC(C)(C)c1ccc(NC(=O)NCCCN(C=O)C[C@H]2O[C@@H](n3cnc4c(N)ncnc43)[C@H](O)[C@@H]2O)cc1` [Compound 206]: the pIC50 is under 4.30.

The test system of a further experiment is H3K79me2 in THP-1 cells. As to the kind of experiment: Methylation analysis: cellular H3K79 dimethylation in THP-1 cells. The settings on record: 50 μM, seven days, western blot. In kind it is cell-based, Human. As to the method:
THP-1 cells were incubated in the presence 50 μM of the indicated compounds for seven days. […] Following treatment, cells were harvested, and histones were extracted, fractionated by SDS-PAGE on a 4-20% gel, transferred to nitrocellulose membranes, and probed with antibodies to histone H3 and histone H3 dimethylated at lysine 79 (H3K79me2). Histones extracted from THP-1 cells expressing control (shNTC) and DOT1L targeting (shDOT1L) shRNAs were included as controls.
as §1, with “Following compound incubation, histones were extracted from 1×10^6 cells using a commercial histone extraction kit (Active Motif).” left out
`CN(CCCNC(=O)Nc1ccc(C(C)(C)C)cc1)C[C@H]1O[C@@H](n2cnc3c(N)ncnc32)[C@H](O)[C@@H]1O` [Compound 118, 1-(3-((((2R,3S,4R,5R)-5-(6-amino-9H-purin-9-yl)-3,4-dihydroxytetrahydrofuran-2-yl)methyl)(methyl)amino)propyl)-3-(4-(tert-butyl)phenyl)urea]: the “cellular histone H3 lysine 79 dimethylation (H3K79me2) level” value is listed as “dramatically reduced”.

Staying with this experiment, now noted: seven days, lowest concentration tested.
Take `CN(CCCNC(=O)Nc1ccc(C(C)(C)C)cc1)C[C@H]1O[C@@H](n2cnc3c(N)ncnc32)[C@H](O)[C@@H]1O` [Compound 118, 1-(3-((((2R,3S,4R,5R)-5-(6-amino-9H-purin-9-yl)-3,4-dihydroxytetrahydrofuran-2-yl)methyl)(methyl)amino)propyl)-3-(4-(tert-butyl)phenyl)urea]: the “concentration at which reduction in H3K79me2 was still observed” value is at most 0.4 µM.

Staying with this experiment, now noted: several concentrations.
Regarding `CN(CCCNC(=O)Nc1ccc(C(C)(C)C)cc1)C[C@H]1O[C@@H](n2cnc3c(N)ncnc32)[C@H](O)[C@@H]1O` [Compound 118, 1-(3-((((2R,3S,4R,5R)-5-(6-amino-9H-purin-9-yl)-3,4-dihydroxytetrahydrofuran-2-yl)methyl)(methyl)amino)propyl)-3-(4-(tert-butyl)phenyl)urea], the “concentration dependence of reduction in H3K79me2 levels” value was “dose dependent reduction”.
